Key:
efflux transporter P-gp = conditions: cited from earlier work
[1] = test system: portal vein tumor thrombosis; experiment: Retrospective review: PVTT recanalization in HCC patients treated with sorafenib plus conventional RT or SBRT; assay type: in vivo, human
Method: The need for informed consent was waived by the Institutional Review Board of the Far Eastern Memorial Hospital (FEMH-IRB-108025-E) and retrospective data were collected after receiving approval from the Institutional Review Board of the Far Eastern Memorial Hospital (FEMH-IRB-108025-E). All research was performed in accordance with relevant guidelines and regulations. All tumors were staged according to the American Joint Committee on Cancer (AJCC) Cancer Staging Manual, 7th edition. A total of 90 HCC patients with PVTT were identified. […] The patients who were treated with a radiation fraction size of <5 Gy and those treated with ≥5 Gy were grouped as the conventional and the SBRT group, respectively.

HCC = conditions: cited from earlier work
[2] = Plasma pharmacokinetics of sorafenib with RT, with or without CsA pretreatment, in freely moving rats; assay type: in vivo, Sprague-Dawley rats; conditions: for Cmax / Tmax / AUC(0-t): Sprague-Dawley, rat, plasma, 40 mg/kg
Method: A freely moving rat model was designed for the current study[21] (Fig. 1A). Experimental rats were anesthetized with 1 g/mL urethane and 0.1 g/mL α-chloralose (1 mL/kg by intraperitoneal [i.p.] injection), and polyethylene tubes were then implanted in the right jugular vein for intravenous (i.v.) fluid administration. The right jugular vein was catheterized for blood sampling. The catheter traversed the subcutaneous tissue and was fixed in the dorsal neck region. After surgery, the rats were placed in an experimental cage and allowed to recover for 1 day. During the recovery period, the rats were kept warm under a light. Then, the rats were anesthetized and immobilized on a board while undergoing CT for localization of the whole liver (conventional technique, Fig. 1B) or a central area of 1.5 × 1.5 cm (SBRT technique, Fig. 1C).
The rats were randomly divided into five groups of six rats per group.
The rats were pretreated with CsA (20 mg/kg, i.p.). […] Blood samples were obtained according to a preset schedule.
Blood samples (150 µL) were withdrawn from the jugular vein with a fraction collector at 15, 30, 45, and 60 min and at 1.5, 2, 2.5, 3, 3.5 and 4 hr after drug administration. The blood samples were immediately centrifuged at 4200 × g for 10 min. The resulting plasma (50 µL) was added to 1 mL of ethyl acetate in a clean tube, vortexed for 5 min, and centrifuged at 5900 × g for 10 min. After centrifugation, the upper organic layer containing ethyl acetate was transferred to a new tube and evaporated to dryness under a nitrogen flow.
Chromatographic analysis was performed on a Model LC-20DAD HPLC system (Shimadzu, Tokyo, Japan) equipped with a Model SPD-M20A wavelength UV detector, a SIL-20AC autosampler, and an LC Solution data processing system. A […] C[18] column (50 × 2.1 mm, particle size 1.7 μm, Eclipse XDB; Agilent, Palo Alto, CA, USA) was used for HPLC separation. The mobile phase consisted of potassium dihydrogen phosphate (10 mM, pH = 3) and acetonitrile (55:45, v/v). The flow rate was set at 0.2 mL/min, and the injection volume was 5 μL. […] A peak controlled spectrum recording was selected with a range of 190–300 nm.
Pharmacokinetic parameters, including the area under the concentration vs. time curve (AUC), terminal elimination phase t1/2, Cmax, MRT, total plasma clearance and Vss, were calculated using the PK calculation software WinNonlin Standard Edition, version 1.1 (Scientific Consulting, Apex, NC, USA) using a compartmental method.

[3] = cited from earlier work
[4] = Organ distribution of sorafenib in rats; assay type: in vivo, Sprague-Dawley rats; conditions: for concentration at 6 h: Sprague-Dawley, rat, po, 40 mg/kg
Method: The brain, liver, heart, spleen, lung and kidney were collected and weighed. These collected samples were stored at −20 °C until analysis.
Thawed organ samples were homogenized in 50% aqueous acetonitrile (sample weight:volume ratio, 1:5), and the homogenate was then centrifuged at 13000 × g for 10 min at 4 °C. The supernatant was collected, placed in brown Eppendorf tubes, and stored at −20 °C until analysis. In brief, each organ sample (50 μL) was combined with 150 μL of IS solution (diethylstilbestrol) for protein precipitation. Finally, 20 μL of filtrate was injected into the HPLC system for analysis.

[5] = parameters: method as in earlier work; conditions: cited from earlier work
[6] = sorafenib + SBRT (fraction size ≥ 5 Gy), n = 18
[7] = sorafenib + conventional RT (fraction size <5 Gy), n = 25
[8] = oral, CsA 20 mg/kg i.p. + RT2Gy, sorafenib 40 mg/kg 1 hr later
[9] = oral, CsA 20 mg/kg i.p. + RT2Gy, sorafenib 40 mg/kg 24 hr later
[10] = oral, CsA 20 mg/kg i.p. + RT9Gy, sorafenib 40 mg/kg 1 hr later
[11] = oral, CsA 20 mg/kg i.p. + RT9Gy, sorafenib 40 mg/kg 24 hr later
[12] = oral, CsA 20 mg/kg i.p. + sorafenib 40 mg/kg
[13] = po, RT2Gy, sorafenib 40 mg/kg 1 hr later
[14] = po, RT2Gy, sorafenib 40 mg/kg 24 hr later
[15] = po, RT9Gy, sorafenib 40 mg/kg 1 hr later
[16] = po, RT9Gy, sorafenib 40 mg/kg 24 hr later
[17] = po, sorafenib 40 mg/kg p.o. only (sham RT), rats

CNC(=O)c1cc(Oc2ccc(NC(=O)Nc3ccc(Cl)c(C(F)(F)F)c3)cc2)ccn1 [sorafenib, Sorafenib]
Binding to P-gp (efflux transporter P-gp): moderate affinity
P-gp substrate affinity (efflux transporter P-gp): moderate-affinity
No response (recanalization) [1, 6]: 1/18 (5.6%)
Partial recanalization [1, 6]: 12/18 (66.7%)
Increase in complete recanalization, SBRT vs conventional RT ([1]; sorafenib + SBRT compared to sorafenib + conventional RT): 3 fold
No response (recanalization) [1, 7]: 10/25 (40.0%)
Partial recanalization [1, 7]: 13/25 (52.0%)
Complete or partial response rate (HCC; HCC patients, combination of sorafenib and RT): 55%
Reduction of HCC tumor volume (HCC; case report, sorafenib + RT combination regimen): 39%
Cmax [2, 8]: 1720 ± 960 ng/mL
Tmax [2, 8]: 3.3 h
Cmax [2, 9]: 7710 ± 3410 ng/mL
Tmax [2, 9]: 3.75 h
Cmax [2, 10]: 3740 ± 2170 ng/mL
Tmax [2, 10]: 3.33 h
Cmax [2, 11]: 5430 ± 3220 ng/mL
Tmax [2, 11]: 3.92 h
Cmax [2, 12]: 4690 ± 2310 ng/mL
Tmax [2, 12]: 4 h
Cmax [2, 13]: 10100 ± 5930 ng/mL
Tmax [2, 13]: 2.92 h
Cmax [2, 14]: 1890 ± 1080 ng/mL
Tmax [2, 14]: 3.4 h
AUC(0-t) ([2]; po, RT2Gy, sorafenib 40 mg/kg p.o. 1 hr later): 27800 ng·h/mL
AUC(0-t) ([2]; po, RT2Gy, sorafenib 40 mg/kg p.o. 24 hr later): 4950 ng·h/mL
Cmax [2, 15]: 12300 ± 6300 ng/mL
Tmax [2, 15]: 3.25 h
Cmax [2, 16]: 8690 ± 2730 ng/mL
Tmax [2, 16]: 3.08 h
AUC(0-t) ([2]; po, RT9Gy, sorafenib 40 mg/kg p.o. 1 hr later): 31500 ng·h/mL
AUC(0-t) ([2]; po, RT9Gy, sorafenib 40 mg/kg p.o. 24 hr later): 24300 ng·h/mL
AUC(0-t) ([2]; po, CsA 20 mg/kg i.p. + RT2Gy, sorafenib 40 mg/kg p.o. 1 hr later): 4630 ng·h/mL
AUC(0-t) ([2]; po, CsA 20 mg/kg i.p. + RT2Gy, sorafenib 40 mg/kg p.o. 24 hr later): 18600 ng·h/mL
AUC(0-t) ([2]; po, CsA 20 mg/kg i.p. + RT9Gy, sorafenib 40 mg/kg p.o. 1 hr later): 10100 ng·h/mL
AUC(0-t) ([2]; po, CsA 20 mg/kg i.p. + RT9Gy, sorafenib 40 mg/kg p.o. 24 hr later): 12900 ng·h/mL
AUC(0-t) ([2]; po, CsA 20 mg/kg i.p. + sorafenib 40 mg/kg p.o.): 13100 ng·h/mL
AUC(0-t) [2, 17]: 12000 ng·h/mL
Cmax [2, 17]: 4390 ± 2280 ng/mL
Tmax [2, 17]: 3.75 h
Increase in concentration of sorafenib ([2]; both concurrent and sequential RT9Gy regimens compared with sorafenib alone): more than 2 fold
Reduction of AUC ([3]; average, concomitant administration of the CYP3A4 inducer rifampicin): 37%
Orally administered dose recovered as unchanged drug ([3]; by biliary excretion or lack of absorption): Approximately 50%
Organ distribution vs sham group ([4]; RT2Gy and RT9Gy under the sequential regimen): did not differ significantly
Level of sorafenib in organs vs sham group ([4]; RT9Gy concurrent with sorafenib, all organs except the brain): significantly decreased
concentration at 6 h ([4]; brain): 140 ± 150 ng/g
concentration at 6 h ([4]; heart): 1200 ± 360 ng/g
concentration at 6 h ([4]; kidney): 1930 ± 750 ng/g
concentration at 6 h ([4]; liver): 4430 ± 1560 ng/g
concentration at 6 h ([4]; lung): 3200 ± 1000 ng/g
concentration at 6 h ([4]; spleen): 1420 ± 530 ng/g
Permeability across the gastrointestinal (GI) epithelium [5]: high
